Patent US20030199002A1, “Clk-2 nucleic acids, polypeptides and uses thereof” (priority 2000, published 2003)

What was measured:
[1] = tested on: SK-HEP-1 cells overexpressing hclk-2; test: Cell death assay (trypan blue exclusion) in SK-HEP-1 cells overexpressing hclk-2; format: cell-based, human; details: SK-HEP-1 cells overexpressing hclk-2 vs control cells
Description: (§1) FIG. 11 illustrates the affect of hclk-2 overexpression on sensitivity to menadione, t-butyl hydroperoxide and hydroxyurea of SK-HEP-1 cells. SK-HEP-1 cells overexpressing hclk-2 and control cells were seeded at 1×10^5/well in a 6-well dish and were treated with γ-rays or apoptosis-inducing compounds for various lengths of time (see Table 7). Cells were then trypsinized, diluted and stained with 0.2% trypan blue. Cell viability was expressed as the percentage of cells excluding trypan blue. The data shown are the means of triplicate experiments. When cells were treated with menadione, t-butyl hydroperoxide or hydroxyurea, the viability of SK-HEP-1 cells overexpressing hclk-2 (44%, 30%, 40% respectively) was dramatically lower than that of the control cells (70%, 63%, 76%), respectively.
(§2) To determine the occurrence of cell death, cells were seeded at 1×10^5 in 6-well dishes. The next day the cells were treated by γ-ray (20 Gy) and counted 72 hr later. A series of different apoptosis-inducing agents were also investigated and the cells were analyzed at various times following treatment (see Table 7). Cell viability was measured by the trypan blue exclusion method.

[2] = as above; format: cell-based, human; details: human; SK-HEP-1 cells overexpressing hclk-2; concentration and time per Table 7: menadione 12 μM 24 hr, t-butyl hydroperoxide 40 μM 48 hr, hydroxyurea 0.6 mM 96 hr; means of triplicate; read-out: Cell viability (percentage of cells excluding trypan blue)
Description: as §1, §2

[3] = Cell death assay (trypan blue exclusion) in SK-HEP-1 control cells; format: cell-based; details: human; SK-HEP-1 control cells (empty vector); concentration and time per Table 7: menadione 12 μM 24 hr, t-butyl hydroperoxide 40 μM 48 hr, hydroxyurea 0.6 mM 96 hr; means of triplicate; read-out: Cell viability (percentage of cells excluding trypan blue)
Description: as §1, §2

SMILES	Sensitivity of cells overexpressing hclk-2 to the apoptosis-inducing agent, compared to control cells [1]	viability [2] [%]	viability [3] [%]
COc1cc([C@@H]2c3cc4c(cc3[C@@H](O[C@@H]3O[C@@H]5CO[C@@H](C)O[C@H]5[C@H](O)[C@H]3O)[C@H]3COC(=O)[C@H]23)OCO4)cc(OC)c1O [etoposide, Etoposide]	no evidence to suggest that an increased sensitivity	–	–
NC(=O)NO [hydroxyurea, Hydroxyurea]	also hypersensitive	–	–
CC1=CC(=O)c2ccccc2C1=O [menadione, Menadione]	specifically hypersensitive	–	–
CC(C)(C)OO [t-butyl hydroperoxide, t-Butyl hydroperoxide]	specifically hypersensitive	30	63
